Read-outs that look alike come from different tables or passages of the source.
Key:
[1] = test system: patient-derived GBM lines (G76, BT-142, G75, G43); assay: Cell viability assay (CyQuant LDH), all four lines; format: cell-based, human; conditions: for IC50: Homo sapiens, BT142, 72 h
Method: (§1) Cell viability Assay: The cytotoxic effects of TMZ, LTZ, and various combinations of the two agents were evaluated using the CyQuant™ Lactate Dehydrogenase (LDH) assay (ThermoFisher Scientific). This assay measures the release of LDH, a cytosolic enzyme, into the extracellular medium resulting from damage to the plasma membrane. Cells (1.4×10^4) were plated in 96 well plates in serum-free medium. Twenty-four hours after seeding, cells were treated with TMZ (0-100 μM), LTZ (0-2 μM), or TMZ (0-10 μM)+LTZ (0.04 μM). Dimethyl sulfoxide (0.1%) was used as a vehicle control. The effect of adding estradiol (250 pg/ml) on cell viability was also determined.

G75 cells [2] = assay: Assessment of gamma-H2A.X (flow cytometry); format: cell-based, human; conditions: for γ-H2AX induction (DNA damage): single agent (TMZ up to 1 μM; LTZ 500 nM and 1 μM); for LTZ-mediated induction of γ-H2AX in the presence of estradiol: estradiol (250 pg/ml)
Method: (§2) Assessment of gamma-H2A.X: Induction of γH2A.X in G75 and G76 cells (lx 106) treated with LTZ, TMZ, and LTZ+TMZ (0-10 μM) in the presence and the absence of estradiol (250 pg/ml) was assessed using flow cytometric analysis. Based on initial assessment of the time course of γH2A.X induction, a 5 h treatment was used to capture maximal effect. Cell pellets were collected by centrifugation of the cells at 2,000×g for 5 minutes at room temperature. Cells were then washed with ice cold PBS, followed by addition of a 1:1 mixture of methanol and NP40 (300 μL) for fixation and permeabilization of the cells. Following centrifugation at 4° C. at 290×g, 100 μL of 1:250 dilution of the primary unconjugated antibody for gamma-H2A.X at room temperature were added to the cells. The cells were incubated with the primary antibody for 20 min and washed with 600 μL of 1:1 methanol and NP40 mixture. Secondary Per-CP conjugated antibody was added to the cells at a dilution of 1:1000 and incubated at room temperature in the dark for 20 minutes. Cells were washed again with 600 μL of 1:1 methanol and NP40 mixture, re-suspended in 1×PBS, and subjected to flow cytometric analysis with the excitation wavelength of 488 nm (Beckman CytoFlex flow cytometer). […] The scatter plots were analyzed using CytExpert version 2.3 to assess the percentage of cells positive for γH2A.X versus the isotype control.

G76 cells [3] = assay: Assessment of gamma-H2A.X (flow cytometry); format: cell-based, human; conditions: for γ-H2AX induction (DNA damage): single agent (TMZ up to 1 μM; LTZ 500 nM and 1 μM); for LTZ-mediated induction of γ-H2AX in the presence of estradiol: estradiol (250 pg/ml)
Method: as §2

BT-142 cells [4] = assay: Neurosphere growth inhibition; format: cell-based, human; conditions: for median neurosphere diameter: 72 h, LTZ 40 nM, TMZ 1 μM, alone or combined
Method: (§3) Neurosphere Growth Inhibition: Since G43 and BT-142 cells form neurospheres in culture medium, the effects of LTZ and TMZ on the growth of the neurosphere. Cells (1×10^4) were plated and 24 hours later treated with LTZ (0-2 μM), TMZ (0-100 μM) or were also determined. Cells were treated with LTZ (0.04 μM)+TMZ (0-10 μM) for 72 h cells, with DMSO (0.1%) serving as vehicle control. Neurosphere dimensions were measured using Leica Stereomicroscope in bright field setting. The effect of addition of estradiol (250 pg/ml) on the neurosphere growth was also determined.

G43 cells [5] = assay: Neurosphere growth inhibition; format: cell-based, human; conditions: for neurosphere diameter: 72 h, LTZ 40 nM, TMZ 1 μM, alone or combined, in mm
Method: as §3

G75 cells [6] = assay: Apoptosis induction, Caspase-Glo 3/7; format: cell-based, human; conditions: for EC50: Homo sapiens; for induction of apoptosis (caspase 3/7), in words: TMZ up to 5 μM
Method: (§4) Apoptosis induction assay using Caspase-Glo® 3/7 system: G75 and G76 cells were employed to assess the effects of LTZ, TMZ, and LTZ+TMZ combination treatment on induction of apoptosis through caspase 3/7 activation. Cells were seeded at a density of 1.5×10^4 cells per well in a translucent walled, clear bottom, 96-well plate. Promega Caspase-Glo® 3/7 Assay system was used to assess the caspase 3/7 levels in cells treated with LTZ, TMZ, LTZ (0.04 μM)+TMZ (0-5 μM), and vehicle (0.1% DMSO). Cells were treated for 24 h after plating. Caspase-Glo® 3/7 3D substrate and Caspase-Glo® 3/7 3D buffer was mixed to form a 10 mL reaction mixture and 100 μL of the mixture was added to each well. The reaction was allowed to proceed at room temperature in the dark for 30 minutes. The luminescence readings were carried out 24 h after the treatment using Synergy™ HTX Multi-Mode Microplate Reader. The experiment was repeated in presence of estradiol to assess the effect of estradiol on caspase induction in G75 and G76 cells.

G76 cells [7] = assay: Apoptosis induction, Caspase-Glo 3/7; format: cell-based, human; conditions: for EC50: Homo sapiens; for induction of apoptosis (caspase 3/7), in words: TMZ up to 5 μM
Method: as §4

[8] = cited from earlier work
G75 cells [9] = assay: Cell viability assay (CyQuant LDH); format: cell-based; conditions: Homo sapiens, 72 h, single agent, read-out: IC50 (cytotoxicity)
Method: as §1

BT-142 cells [10] = assay: Cell viability assay (CyQuant LDH); format: cell-based; conditions: Homo sapiens, BT142, 72 h, single agent, read-out: IC50 (cytotoxicity)
Method: as §1

G76 cells [11] = assay: Cell viability assay (CyQuant LDH); format: cell-based, human; conditions: 72 h, single agent, read-out: IC50 (cytotoxicity)
Method: as §1

G43 cells [12] = assay: Cell viability assay (CyQuant LDH); format: cell-based, human; conditions: 72 h, single agent, read-out: IC50 (cytotoxicity)
Method: as §1

[13] = LTZ 40 nM alone or combined with TMZ
[14] = single agent, Emax model, read-out: EC50 for caspase 3/7 induction
[15] = with letrozole 40 nM, read-out: EC50 for caspase 3/7 induction by temozolomide in the presence of letrozole (40 nM)

Compound: N#Cc1ccc(C(c2ccc(C#N)cc2)n2cncn2)cc1 [LTZ, 4,4′-((1H-1,2,4-triazol-1-yl)methylene)dibenzonitrile]
- IC50 ([1]; single agent, read-out: IC50 (cytotoxicity), range over the cell lines): 0.08 to 0.67 µM
- letrozole effects in cell viability assay with estradiol added ([1]; estradiol (250 pg/ml) added to the culture media): completely abrogated the letrozole effects
- γ-H2AX induction (DNA damage) (G75 cells [2]; 5 h): considerably increased γ-H2AX levels
- γ-H2AX induction (DNA damage) (G75 cells [2]; 5 h, listed as Letrozole): caused DNA damage
- LTZ-mediated induction of γ-H2AX in the presence of estradiol (G75 cells [2]): abrogated in the presence of estradiol
- LTZ-mediated induction of γ-H2AX in the presence of estradiol (G75 cells [2]; listed as letrozole): prevented letrozole-mediated DNA damage
- γ-H2AX induction (DNA damage) (G76 cells [3]; 5 h): considerably increased γ-H2AX levels
- γ-H2AX induction (DNA damage) (G76 cells [3]; 5 h, listed as Letrozole): caused DNA damage
- LTZ-mediated induction of γ-H2AX in the presence of estradiol (G76 cells [3]): abrogated in the presence of estradiol
- LTZ-mediated induction of γ-H2AX in the presence of estradiol (G76 cells [3]; listed as letrozole): prevented letrozole-mediated DNA damage
- median neurosphere diameter (BT-142 cells [4]): 1.1±0.077 mm
- neurosphere growth inhibition (in words) (BT-142 cells [4]; [13]): minimally impacted neurosphere growth
- letrozole effects in neurosphere growth inhibition assay with estradiol added (BT-142 cells [4]; estradiol (250 pg/ml) added): completely abrogated the letrozole effects
- neurosphere diameter (G43 cells [5]): 1.85±0.13
- neurosphere growth inhibition (in words) (G43 cells [5]; [13]): minimally impacted neurosphere growth
- letrozole effects in neurosphere growth inhibition assay with estradiol added (G43 cells [5]; estradiol (250 pg/ml) added): completely abrogated the letrozole effects
- EC50 (G75 cells [6]; [14]): 5.07 ± 1.1 µM
- letrozole-mediated induction of apoptosis in the presence of estradiol (G75 cells [6]; estradiol present): prevented letrozole-mediated DNA damage and induction of apoptosis
- induction of apoptosis (caspase 3/7), in words (G75 cells [6]; single agent): very effective in inducing apoptosis in a concentration-dependent manner
- EC50 (G76 cells [7]; [14]): 1.8 ± 0.312 µM
- letrozole-mediated induction of apoptosis in the presence of estradiol (G76 cells [7]; estradiol present): prevented letrozole-mediated DNA damage and induction of apoptosis
- induction of apoptosis (caspase 3/7), in words (G76 cells [7]; single agent): very effective in inducing apoptosis in a concentration-dependent manner

Compound: Cn1nnc2c(C(N)=O)ncn2c1=O [TMZ, 4-methyl-5-oxo-2,3,4,6,8-pentazabicyclo[4.3.0]nona-2,7,9-triene-9-carboxamide]
- peak plasma levels ([8]; doses of 100-200 mg/m^2, listed as temozolomide): 25 to 50 µM
- partitioning of the drug from plasma to the brain interstitial fluid ([8]; intracerebral microdialysis, peritumoral): 13-17%
- brain interstitial fluid (peritumoral) concentrations ([8]; intracerebral microdialysis, approximately): 3 to 8 µM
- IC50 (G75 cells [9]): 107 µM
- IC50 (BT-142 cells [10]): 15.3 µM
- IC50 ([1]; with LTZ 40 nM, read-out: TMZ IC50 in the presence of LTZ (40 nM), range for all four cell lines): 0.16 to 0.69 µM
- IC50 (G76 cells [11]): 1.31 µM
- IC50 (G76 cells [11]; Homo sapiens): 1.3 µM
- IC50 (G43 cells [12]): 165 µM
- IC50 (G43 cells [12]; Homo sapiens): 165 µM
- γ-H2AX induction (DNA damage), TMZ combined with LTZ (G75 cells [2]; 5 h, LTZ 40 nM + TMZ 0.1 μM): significantly enhanced DNA damage by temozolomide
- γ-H2AX induction (DNA damage) (G75 cells [2]; 5 h): not in G75 cells
- γ-H2AX induction (DNA damage), TMZ combined with LTZ (G76 cells [3]; 5 h, LTZ 40 nM + TMZ 0.1 μM): significantly enhanced DNA damage by temozolomide
- γ-H2AX induction (DNA damage) (G76 cells [3]; 5 h): noticeable induction of γ-H2AX
- median neurosphere diameter (BT-142 cells [4]): 0.9±0.023 mm
- neurosphere diameter (G43 cells [5]): 1.6±0.085
- EC50 (G75 cells [6]; [14]): 93.8 µM
- EC50 (G75 cells [6]; [15]): 5.1 µM
- induction of apoptosis (caspase 3/7), in words (G75 cells [6]; single agent): not in G75 cells
- TMZ-mediated apoptosis (caspase 3/7) with LTZ (40 nM) (G75 cells [6]; with LTZ 40 nM): striking increase in TMZ-mediated apoptosis
- EC50 (G76 cells [7]; [14]): 6.4 µM
- EC50 (G76 cells [7]; [15]): 1.8 µM
- induction of apoptosis (caspase 3/7), in words (G76 cells [7]; single agent): induced apoptosis in G76 cells
- TMZ-mediated apoptosis (caspase 3/7) with LTZ (40 nM) (G76 cells [7]; with LTZ 40 nM): striking increase in TMZ-mediated apoptosis
